Inhibition data for 97 compounds are collected here from ChEMBL document CHEMBL3727350, “Agents and methods for treating ischemic and other diseases” (2014).

This assay has as its target Transient receptor potential cation channel subfamily M member 7 (Mus musculus) (UniProt Q923J1). As to the kind of experiment: Inhibition of Tet-induced Flag-tagged mouse TRPM7 expressed in HEK293 cells assessed as inhibition of channel-mediated cell death in presence of Mg2+ incubated for 24 to 48 hrs by propidium iodide uptake assay. The format is cell-based. Further details: concentration or dose not given beside the values.

Active and inactive are the calls of the source. The rule behind the calls is not given here. Some results are limits rather than exact numbers.

Transient receptor potential cation channel subfamily M member 7 (Mus musculus), sequence (Q923J1 whole entry): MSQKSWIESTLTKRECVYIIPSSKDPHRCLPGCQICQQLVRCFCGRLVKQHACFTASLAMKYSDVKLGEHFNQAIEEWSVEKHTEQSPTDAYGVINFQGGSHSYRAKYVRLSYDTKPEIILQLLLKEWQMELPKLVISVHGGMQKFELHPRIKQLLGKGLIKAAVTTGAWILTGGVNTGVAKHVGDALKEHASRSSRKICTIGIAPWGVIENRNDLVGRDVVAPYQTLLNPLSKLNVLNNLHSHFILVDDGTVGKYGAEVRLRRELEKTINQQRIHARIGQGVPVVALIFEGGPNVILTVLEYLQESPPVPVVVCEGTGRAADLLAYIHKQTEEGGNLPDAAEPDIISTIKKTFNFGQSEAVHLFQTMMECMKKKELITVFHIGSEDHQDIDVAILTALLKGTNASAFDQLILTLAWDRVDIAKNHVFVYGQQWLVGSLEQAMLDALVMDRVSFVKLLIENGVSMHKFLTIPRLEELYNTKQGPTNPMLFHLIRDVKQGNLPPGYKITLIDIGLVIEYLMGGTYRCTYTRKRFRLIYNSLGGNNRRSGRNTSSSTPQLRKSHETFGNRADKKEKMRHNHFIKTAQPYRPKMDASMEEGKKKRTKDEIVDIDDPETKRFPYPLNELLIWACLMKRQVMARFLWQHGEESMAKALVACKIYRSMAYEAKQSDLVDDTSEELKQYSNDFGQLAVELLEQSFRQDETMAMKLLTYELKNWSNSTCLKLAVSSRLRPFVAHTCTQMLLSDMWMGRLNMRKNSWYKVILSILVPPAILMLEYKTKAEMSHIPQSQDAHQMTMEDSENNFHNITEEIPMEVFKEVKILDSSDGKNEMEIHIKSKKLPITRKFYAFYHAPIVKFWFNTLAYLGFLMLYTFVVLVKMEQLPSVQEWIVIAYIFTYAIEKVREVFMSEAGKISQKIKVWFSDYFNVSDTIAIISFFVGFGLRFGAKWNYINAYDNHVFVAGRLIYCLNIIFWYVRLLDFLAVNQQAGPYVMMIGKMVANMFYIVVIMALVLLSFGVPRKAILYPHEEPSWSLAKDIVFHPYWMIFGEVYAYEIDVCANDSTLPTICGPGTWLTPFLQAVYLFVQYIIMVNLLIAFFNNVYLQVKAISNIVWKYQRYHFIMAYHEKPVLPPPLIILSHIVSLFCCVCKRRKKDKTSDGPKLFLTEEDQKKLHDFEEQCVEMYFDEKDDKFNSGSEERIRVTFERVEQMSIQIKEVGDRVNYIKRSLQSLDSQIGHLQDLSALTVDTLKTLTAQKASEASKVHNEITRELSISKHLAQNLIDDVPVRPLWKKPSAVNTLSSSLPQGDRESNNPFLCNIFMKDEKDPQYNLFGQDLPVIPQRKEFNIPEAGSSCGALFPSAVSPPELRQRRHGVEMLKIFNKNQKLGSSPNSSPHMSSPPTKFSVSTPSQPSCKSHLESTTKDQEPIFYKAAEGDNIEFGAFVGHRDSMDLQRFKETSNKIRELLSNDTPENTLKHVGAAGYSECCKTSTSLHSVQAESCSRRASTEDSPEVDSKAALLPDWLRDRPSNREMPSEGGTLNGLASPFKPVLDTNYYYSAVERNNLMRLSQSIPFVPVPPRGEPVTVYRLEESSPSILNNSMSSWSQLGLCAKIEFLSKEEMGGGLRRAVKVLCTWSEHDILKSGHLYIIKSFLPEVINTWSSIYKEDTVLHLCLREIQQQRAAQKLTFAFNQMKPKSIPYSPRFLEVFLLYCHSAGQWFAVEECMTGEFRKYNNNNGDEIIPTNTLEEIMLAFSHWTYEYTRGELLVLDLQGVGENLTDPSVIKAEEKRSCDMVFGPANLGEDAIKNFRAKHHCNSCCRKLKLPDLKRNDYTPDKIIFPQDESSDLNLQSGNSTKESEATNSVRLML

For orientation: inhibition means the drop in the measured response relative to a control, in per cent. As to `Cc1cc(O)nc2c1c(C)nn2C`, the inhibition (concentration not given here) is less than 30%.
Take `O=c1ccsn1-c1ccc(F)c(Cl)c1`: the inhibition (concentration not given here) was less than 30%.
On the same count and under the same terms, with `CC[n+]1c(/C=C/c2ccc(OC)cc2)ccc2ccccc21` the figure was less than 30%.
For `CS(=O)(=NS(=O)(=O)c1ccc(Cl)cc1Cl)c1ccc(Cl)cc1` (configuration not stated), the inhibition (concentration not given here) was less than 30%.
Same read-out and setting: as for `O=C(Nc1ccccc1)OCCSCc1ccc2nc(C(F)(F)F)ccc2c1`, the figure is 60%.
Same read-out and setting: as for `Cc1ccc(NC(=O)c2c(-c3ccccc3Cl)noc2C)cc1F`, the figure is less than 30%; as for `CC(=O)/C(C#N)=C/c1ccco1`, less than 30%; as for `O=C(Nc1ccc(F)c(Cl)c1)c1ccccc1O`, less than 30%.
On to `COc1cc(/C=C/C(=O)N2CCC=CC2=O)cc(OC)c1OC`, for which the inhibition result was “Dose-dependent effect”.
As to `O=C(CSc1ssc(=S)c1-c1ccccc1)Nc1ccc(Cl)cc1`, the inhibition (concentration not given here) was less than 30%.
`Cc1ccc(Cn2nc(C(=O)O/N=C(\N)c3cccc(C(F)(F)F)c3)cc2C)cc1`: the inhibition (concentration not given here) is less than 30%.
Take `Cc1cc(O)nc2c1c(-c1ccccc1)nn2C`: for the setting “concentration not given here”, the inhibition is less than 30%.
For the compound `CC1(C)CC(=O)C=C(Sc2ccc(C#N)cc2[N+](=O)[O-])S1`, the inhibition (concentration not given here) is 50%.
As for `COc1ccc(-c2[nH]ncc2CN2CCN(c3ccc(F)cc3)CC2)cc1`, the inhibition (concentration not given here) was less than 30%.
Take `O=C1C(c2ccccc2)=C(O)C2C=CC=C3c4ccccc4N1C32` (configuration not stated): the inhibition entry is “Active”.
For the compound `CC(C)(C)c1ccc(-c2noc(-c3ccc4c(c3)CCO4)n2)cc1`, the inhibition (concentration not given here) came out at 60%.
Still for that read-out and setting: with `Fc1ccc(CN2CCN(Cc3c[nH]c4ccccc34)CC2)cc1` the figure was 70%.
`CCCSC(=S)c1c(C)nn(-c2ccc(C)cc2)c1O`: the inhibition (concentration not given here) is 50%.
Turning to `NCCCNc1ccc2c3c(nn2CCNCCO)-c2c(O)ccc(O)c2C(=O)c13`, the inhibition (concentration not given here) was 80%.
On to `CC(=O)c1ccc(Nc2cc(C)nc3ccccc23)cc1`, for which, for the setting “concentration not given here”, the inhibition is less than 30%.
Regarding `O=C(O)C1Cc2ccccc2CN1` (configuration not stated), where the note is “concentration not given here”, the inhibition is less than 30%.
As to `Cc1ccc(S(=O)(=O)Nc2ccccc2Oc2ccccc2)cc1`, the inhibition (concentration not given here) is less than 30%.
On to `O=S(=O)(Cc1nc2ccc(Cl)cc2s1)CS(=O)(=O)Nc1nc2ccc(Cl)cc2s1`, for which, under “concentration not given here”, the inhibition worked out at 70%.
On the same count and under the same terms, with `COc1ccc(CCNc2ccc(C(F)(F)F)cc2[N+](=O)[O-])cc1OC` the figure was 30%; with `CO[C@@H]1O[C@@H]2CO[C@H](COC(C)=O)[C@]3(OC(C)=O)CO[C@H](OC2[C@H](OC(C)=O)[C@H]1OC(C)=O)[C@@H](OC(C)=O)[C@@H]3OC(C)=O` (some centres not stated), 40%.
On the same count and under the same terms, as for `O=c1c(Cc2ccc(Br)cc2)csc2ccccc12`, the figure is less than 30%.
Take `CSc1scc(NC(=O)Nc2cccc(Cl)c2)c1S(=O)(=O)C(C)C`: the inhibition (concentration not given here) stood at 60%.
On to `CC(C)NC(=S)Nc1ccc2c(c1)S(=O)(=O)C=C2`, for which, for the setting “concentration not given here”, the inhibition was less than 30%.
As for `Fc1ccc(N2CCN(Cc3c[nH]c(-c4ccccc4)n3)CC2)cc1`, the inhibition (concentration not given here) is 70%.
Consider `N#CCc1nn(-c2ccccc2)c(/N=C/c2cc(Cl)cc(Cl)c2O)c1C#N`, for which the inhibition (concentration not given here) is 60%.
In the case of `FC(F)(F)c1cc(Oc2ccc(Cl)cc2)ccc1-c1ncc(-c2cccc(Cl)c2)o1`, where the note is “concentration not given here”, the inhibition was 70%.
For the compound `Cc1c(C)c(C)c(CN2CCOC(c3ccccc3)C2C)c(C)c1C` (configuration not stated), the inhibition (concentration not given here) was less than 30%.
Same read-out and setting: with `N#CC1=C(N)Oc2c3c(c4ccccc4c2C1c1ccc(C(F)(F)F)cc1)C(c1ccc(C(F)(F)F)cc1)C(C#N)=C(N)O3` (configuration not stated) the figure was less than 30%; with `Cc1cc(SCc2nnc(-c3ccc([N+](=O)[O-])c(C)c3)o2)c(C)cc1Cl`, 80%; with `Cc1c(-c2nc(-c3ccc([N+](=O)[O-])o3)no2)n(C)oc1=O`, less than 30%.
Same read-out and setting: with `O=C(Nc1cccc([N+](=O)[O-])c1)c1ccccc1O` the figure was 60%; with `CCCCCc1ccc(S(=O)(=O)Nc2ccccc2C(=O)NCC2CC2)cc1`, 60%; with `FC(F)(F)COc1ccc(-c2nc(-c3ccc(Cl)cc3)cs2)cn1`, 50%.
Consider `CCOC(=O)C(Nc1ccccc1)C(=O)OCC`, for which the inhibition (concentration not given here) worked out at 30%.
Consider `Cc1cc2c(cc1C)CSC(C)(c1ccc(F)cc1)SC2`, for which the inhibition (concentration not given here) was less than 30%.
The same measure, in the same setting: as for `CC(=O)N1N=C(c2ccccc2O)CC1c1ccc(Cl)cc1Cl` (configuration not stated), the figure is less than 30%; as for `CCOC(=O)c1cc2c(NC(=O)c3ccc(Cl)cc3)c(C(=O)OCC)sc2nc1C(F)(F)F`, less than 30%; as for `CSC1=N/C(=C\c2ccccc2O)C(=O)N1Cc1ccco1`, less than 30%.
As to `CC(=O)Nc1cc(C)ccc1C`, the inhibition (concentration not given here) was less than 30%.
For `CCOC(=O)c1cc(Cl)ccc1OS(=O)(=O)c1ccc(NC(C)=O)cc1`, for the setting “concentration not given here”, the inhibition turned out to be 50%.
As to `O=C(c1ccc(F)cc1)C1CCN(Cc2c[nH]c(-c3ccccc3)n2)CC1`, for the setting “concentration not given here”, the inhibition came to 30%.
Consider `COc1ccc(NC(=S)Nc2ccc(C)c(NS(C)(=O)=O)c2)cc1`, for which, where the note is “concentration not given here”, the inhibition is 70%.
For `O=S(=O)(CCN1CCC(n2cccc2)CC1)c1ccc(F)cc1`, the inhibition (concentration not given here) was determined as 40%.
Turning to `Cc1ccc(S(=O)(=O)Nc2ccc(C)cc2NS(=O)(=O)c2ccc(Cl)cc2)cc1`, for the setting “concentration not given here”, the inhibition amounted to 40%.
Regarding `O=C1CC(c2ccccc2)CC(=O)N1c1ccc(Oc2ccc(Cl)cc2)cc1`, the inhibition (concentration not given here) was less than 30%.
For `CSc1scc2c1-c1n[nH]cc1CC2`, the inhibition (concentration not given here) is less than 30%.
For the compound `CC(C)(C)c1ccc(NC(=O)/C=C/C(=O)O)cc1`, where the note is “concentration not given here”, the inhibition is less than 30%.
With `Cc1ccc(OC/C(N)=N/OC(=O)c2cc(C)on2)cc1`, the inhibition (concentration not given here) was less than 30%.
The same measure, in the same setting: with `CC1CN=C(N(CCc2ccccc2)C(=O)Nc2ccc(Cl)cc2)S1` (configuration not stated) the figure was less than 30%; with `O=C1/C(=C\c2ccc3c(c2)OCO3)C(c2ccccc2)Oc2ccccc21` (configuration not stated), 50%; with `O=C(CSC1CN(C(c2ccccc2)c2ccccc2)C1)N/N=C/c1ccncc1`, 50%.
On to `Cc1cc(-c2nc(-c3ccc(C(C)(C)C)cc3)no2)no1`, for which, where the note is “concentration not given here”, the inhibition worked out at 30%.
For `CCOC(=O)c1nc(COc2ccccc2Cl)[nH]c(=O)c1C`, the inhibition (concentration not given here) is less than 30%.
For the compound `O=c1[nH]c2c(Cl)c(Cl)ccc2c(O)c1-c1ccccc1`, the inhibition (concentration not given here) is 60%.
On the same count and under the same terms, with `Cc1onc(-c2ccccc2)c1-c1cnn(S(=O)(=O)c2ccc(Cl)cc2)c1` the figure was 30%; with `C/C(=N\NC1=NCCN1Cc1ccccc1)c1ccc(C)cc1`, 70%.
As to `CC(C)c1ccc(-c2cc(=O)c3ccccc3o2)cc1`, the inhibition (concentration not given here) turned out to be 80%.
Consider `CN1c2ccccc2C(C)(C)C12C=Cc1c(ccc3ccccc13)O2` (configuration not stated), for which the inhibition (concentration not given here) was less than 30%.
Consider `C#CCOC(=O)NC(=O)c1c(-c2ccc(Cl)cc2)n[nH]c1SC`, for which the inhibition (concentration not given here) was less than 30%.
With `Cc1ccc(NS(=O)(=O)c2ccc(-c3cnc(C)s3)s2)c(C)c1`, under “concentration not given here”, the inhibition came out at 80%.
Regarding `CC(C)(C)c1cc2nc(C(F)(F)F)cc(N3CCN(S(=O)(=O)c4ccccc4)CC3)n2n1`, the inhibition (concentration not given here) was less than 30%.
Turning to `COc1cc2c(c(OC)c1OC)-c1ccc(OC)c(=O)cc1[C@@H](NC(C)=O)CC2`, the inhibition result is “Active”.
On to `Cc1csc(NC(=O)C(F)(F)F)c1C(N)=O`, for which, for the setting “concentration not given here”, the inhibition turned out to be 50%.
`CSc1sc(Br)c2c1C(=O)CCC2`: under “concentration not given here”, the inhibition is less than 30%.
Take `CN(/N=C/Cc1nnnn1-c1ccc(Cl)cc1)c1ccccc1`: the inhibition (concentration not given here) was less than 30%.
`COc1ccc(C(=O)Nc2c(-c3ccc(Br)cc3)c(C(F)(F)F)nn2C)cc1OC`: under “concentration not given here”, the inhibition was less than 30%.
Consider `O=C(/C=C/c1cccs1)NC(=S)Nc1ccccc1Cl`, for which, under “concentration not given here”, the inhibition was less than 30%.
Regarding `Cc1c(S(=O)(=O)Nc2ccc(Cl)cc2)sc2ccc(Cl)cc12`, the inhibition (concentration not given here) was less than 30%.
Consider `N#C/C(=N\Nc1ccc(Cl)c(Cl)c1)C(=O)C1CC1`, for which the inhibition (concentration not given here) was 40%.
Same read-out and setting: with `CSC(SC)=C(C#N)C(=O)c1ccccc1Cl` the figure was less than 30%.
For `Cc1csc2ncnc(N3CCN(S(=O)(=O)c4ccc(Cl)cc4)CC3)c12`, the inhibition (concentration not given here) came out at 70%.
For `COC(=O)c1scc(S(=O)(=O)C(C)C)c1N/N=C(\C#N)C(=O)c1ccccc1`, where the note is “concentration not given here”, the inhibition was less than 30%.
In the case of `NC(=O)C1CCN(CCS(=O)(=O)c2ccccc2)CC1`, under “concentration not given here”, the inhibition amounted to 30%.
On to `Oc1c(Cl)cc(Cl)cc1/C=N/c1ccc(Cl)cn1`, for which the inhibition (concentration not given here) worked out at 40%.
For the compound `Cc1ccc(-c2nc(NC(=O)Nc3ccccc3)sc2C)cc1Cl`, the inhibition (concentration not given here) was less than 30%.
With `FC(F)(F)c1ccccc1NC(=S)N1CCCN(c2nc3ccc(Cl)cc3s2)CC1`, for the setting “concentration not given here”, the inhibition worked out at 60%.
Take `Clc1ccc(CO/N=C/c2nc3ccccc3s2)cc1`: the inhibition (concentration not given here) is 40%.
Turning to `O=C1NC(=S)S/C1=C/c1ccc(Cl)cc1Cl`, where the note is “concentration not given here”, the inhibition came out at 40%.
With `CC(C)(C)NC(=O)CSc1nnc([C@H](Cc2ccccc2)NC(=O)OC(C)(C)C)o1`, the inhibition (concentration not given here) turned out to be 30%.
For `COc1cccc2c1C(=O)c1c(O)c3c(c(O)c1C2=O)C[C@@](O)(C(C)=O)C[C@@H]3O[C@H]1C[C@H](N)[C@H](O)[C@H](C)O1`, the inhibition result is “Dose-dependent effect”.
Regarding `O=C(Nc1ccc(CN2CCS(=O)(=O)CC2)cc1)c1ccc(C(F)(F)F)cc1`, for the setting “concentration not given here”, the inhibition was 40%.
In the case of `O=C(O)c1cc(C(F)(F)F)cc(C(F)(F)F)c1`, the inhibition (concentration not given here) is less than 30%.
For `O=C1CC2Sc3ccccc3N=C2N1Cc1ccccn1` (configuration not stated), the inhibition (concentration not given here) was less than 30%.
In the case of `CCOC(=O)CCc1cc(/N=C/c2cc(Cl)cc(Cl)c2O)c(O)c(/N=C/c2cc(Cl)cc(Cl)c2O)c1`, where the note is “concentration not given here”, the inhibition was 50%.
On the same count and under the same terms, with `COc1ccc2c(c1)CCCN2C(=O)c1sc2ccccc2c1Cl` the figure was 60%; with `CNC(=O)c1cc([N+](=O)[O-])cc2c1-c1ccc([N+](=O)[O-])cc1C2=O`, less than 30%.
Still for that read-out and setting: with `Clc1cc(Cl)c(N/N=C/c2cc(C#Cc3ccccc3)cs2)c(Cl)c1` the figure was 50%.
As for `Cc1ccc(C(=O)Nc2ccc3c(c2)CS(=O)(=O)C3)cc1`, for the setting “concentration not given here”, the inhibition is less than 30%.
In the case of `N#CC(C#N)=CNc1cc(C(F)(F)F)ccc1N1CCc2ccccc2C1`, under “concentration not given here”, the inhibition came out at 50%.
Turning to `Cc1ccc(-c2n[nH]cc2Sc2ccc(C(F)(F)F)cn2)cc1`, the inhibition (concentration not given here) was less than 30%.
`O=C1/C(=C\c2ccc(F)cc2)Sc2ccccc21`: the inhibition (concentration not given here) is less than 30%.
With `O=C(N/C=C/c1cccs1)Nc1ccc(Cl)cc1`, the inhibition (concentration not given here) is less than 30%.
